Source: paper PMC5429603, “Discovery and characterization of verinurad, a potent and specific inhibitor of URAT1 for the treatment of hyperuricemia and gout” (Scientific Reports, 2017)

How the values were obtained:
rat URAT1 r-T26V = rat URAT1 r-T26V (Rattus norvegicus, UniProt Q3ZAV1, T26V); experiment: cell-based
Description: (§1) Human URAT1 (GenBank BC053348.1, Homo sapiens SLC22A12), rat URAT1 (NCBI NM_001034943.1, Rattus norvegicus Slc22a12) and human OAT4 (NCBI NM_018484.2, Homo sapiens SLC22A11) genes were purchased from Origene Technologies, Inc. and subcloned into pCMV6/neo using NotI. Where indicated, controls transfections used pCMV6/neo. Mutants were produced by site-directed mutagenesis using the QuikChange Lightning Multi Site-Directed Mutagenesis Kit (Agilent Technologies). […] Mutagenic primer sequences are provided in ref. [15] and mutagenic primer sequences for previously unreported mutants shown in Supplementary Table 1. All constructs used in this study were untagged. Human OAT1 was purchased from Fisher Scientific (catalog # MHS1010–7508183 in pSPORT6, NCBI NM_153276.2, Homo sapiens SLC22A6).
(§2) HEK-293T cells were maintained in DMEM/high glucose/L-glutamine/HEPES supplemented with 1 mM sodium pyruvate (Life Technologies) and 10% FBS (PAA Laboratories) at 37 °C in 5% CO2. To express URAT1, OAT4 or OAT1, plasmids were reverse transfected into HEK-293T cells. DNA (10 µg) was mixed with 30 µl of DreamFect Gold (Boca Scientific) in 2 ml OptiMem (Life Technologies). After 20 minutes, 18 ml of media containing 2 × 10^7 cells in suspension was added and mixed, and 200 µl per well were plated onto white clear-bottomed poly-D-lysine coated 96-well plates (BD Biosciences). The cells were assayed the following day.
(§3) URAT1 and OAT4 activity assays were performed in assay buffer consisting of 25 mM MES pH 5.5 (from a 1 M MES solution [Sigma] adjusted to pH 5.5 with sodium hydroxide), 125 mM sodium gluconate, 4.8 mM potassium gluconate, 1.2 mM monobasic potassium phosphate, 1.2 mM magnesium sulfate, 1.3 mM calcium gluconate and 5.6 mM glucose. URAT1 inhibitors were serially diluted into assay buffer and added to the cells for 5 minutes prior to addition of substrate. URAT1-expressing cells were incubated with 100 µM ^14C-uric acid for 10 minutes and OAT4-expressing cells were incubated with 20 µM carboxyfluorescein (Life Technologies, Inc.) for 5 minutes. Cells were then washed three times in 25 mM MES pH 5.5/125 mM sodium gluconate, and solubilized in Ultima Gold (Perkin Elmer) prior to liquid scintillation counting. Each treatment was measured in triplicate.

rat URAT1 r-N35S/M481I = rat URAT1 r-N35S/M481I (Rattus norvegicus, UniProt Q3ZAV1, M481I/N35S); experiment: cell-based
rat URAT1 r-N35S/M481I, sequence (Q3ZAV1 whole entry N35S/M481I): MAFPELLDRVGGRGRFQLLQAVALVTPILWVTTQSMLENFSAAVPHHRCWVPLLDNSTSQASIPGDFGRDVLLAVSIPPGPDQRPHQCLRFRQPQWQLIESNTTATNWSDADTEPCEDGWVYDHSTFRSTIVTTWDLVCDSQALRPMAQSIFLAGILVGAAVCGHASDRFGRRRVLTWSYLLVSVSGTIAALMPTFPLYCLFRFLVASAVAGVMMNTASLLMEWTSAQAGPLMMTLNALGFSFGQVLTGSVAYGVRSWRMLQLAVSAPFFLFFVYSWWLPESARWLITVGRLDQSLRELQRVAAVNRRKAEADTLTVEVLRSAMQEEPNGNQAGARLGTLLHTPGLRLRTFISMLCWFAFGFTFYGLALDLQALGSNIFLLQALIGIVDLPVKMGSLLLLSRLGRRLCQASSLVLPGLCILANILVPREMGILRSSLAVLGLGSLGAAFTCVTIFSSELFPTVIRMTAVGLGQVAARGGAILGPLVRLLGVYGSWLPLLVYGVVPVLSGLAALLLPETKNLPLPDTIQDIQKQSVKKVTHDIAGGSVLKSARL
Description: as §1, §2, §3

human URAT1 h-L31V = molecular target: T1, human URAT1 h-L31V (Homo sapiens, UniProt Q96S37, L31V); experiment: URAT1 activity assay, h-L31V; assay type: cell-based; conditions: TM1 point mutant, read-out: Verinurad affinity (IC50)
T1 construct: expressed in transfected cells; host or cells: HEK-293T
T1 sequence (Q96S37 whole entry L31V): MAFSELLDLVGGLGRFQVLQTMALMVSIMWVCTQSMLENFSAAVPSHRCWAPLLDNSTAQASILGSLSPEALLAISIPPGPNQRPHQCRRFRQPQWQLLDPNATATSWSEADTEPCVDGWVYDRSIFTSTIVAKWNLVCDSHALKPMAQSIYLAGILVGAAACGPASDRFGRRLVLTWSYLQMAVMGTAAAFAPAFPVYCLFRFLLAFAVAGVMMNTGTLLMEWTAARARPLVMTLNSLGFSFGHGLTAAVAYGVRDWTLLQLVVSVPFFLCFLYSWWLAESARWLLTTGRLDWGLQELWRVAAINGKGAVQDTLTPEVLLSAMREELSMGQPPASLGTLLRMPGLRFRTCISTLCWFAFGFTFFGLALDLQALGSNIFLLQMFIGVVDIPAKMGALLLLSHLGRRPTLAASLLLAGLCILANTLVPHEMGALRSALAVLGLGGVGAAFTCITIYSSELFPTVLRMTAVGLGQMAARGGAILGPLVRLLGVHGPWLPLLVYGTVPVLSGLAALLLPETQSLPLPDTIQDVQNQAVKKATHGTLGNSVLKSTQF
Description: as §1
(§4) HEK-293T cells were maintained in DMEM/high glucose/L-glutamine/HEPES supplemented with 1 mM sodium pyruvate (Life Technologies) and 10% FBS (PAA Laboratories) at 37 °C in 5% CO2. […]
(§5) URAT1 and OAT4 activity assays were performed in assay buffer consisting of 25 mM MES pH 5.5 (from a 1 M MES solution [Sigma] adjusted to pH 5.5 with sodium hydroxide), 125 mM sodium gluconate, 4.8 mM potassium gluconate, 1.2 mM monobasic potassium phosphate, 1.2 mM magnesium sulfate, 1.3 mM calcium gluconate and 5.6 mM glucose. […] Each treatment was measured in triplicate.

rat URAT1 r-T32C = molecular target: T2, rat URAT1 r-T32C (Rattus norvegicus, UniProt Q3ZAV1, T32C); experiment: URAT1 activity assay, r-T32C; assay type: cell-based
T2 construct: expressed in transfected cells; host or cells: HEK-293T
T2 sequence (Q3ZAV1 whole entry T32C): as the sequence (Q3ZAV1 whole entry N35S/M481I) above, with T32C, S35N, I481M counted along it
Description: as §1, §4, §5

[1] = molecular target: T3, rat URAT1 r-N35S/Y365F/M481I (Rattus norvegicus, UniProt Q3ZAV1, M481I/N35S/Y365F); experiment: URAT1 activity assay, r-N35S/Y365F/M481I; assay type: cell-based
T3 construct: expressed in transfected cells; host or cells: HEK-293T
T3 sequence (Q3ZAV1 1-553 N35S/Y365F/M481I): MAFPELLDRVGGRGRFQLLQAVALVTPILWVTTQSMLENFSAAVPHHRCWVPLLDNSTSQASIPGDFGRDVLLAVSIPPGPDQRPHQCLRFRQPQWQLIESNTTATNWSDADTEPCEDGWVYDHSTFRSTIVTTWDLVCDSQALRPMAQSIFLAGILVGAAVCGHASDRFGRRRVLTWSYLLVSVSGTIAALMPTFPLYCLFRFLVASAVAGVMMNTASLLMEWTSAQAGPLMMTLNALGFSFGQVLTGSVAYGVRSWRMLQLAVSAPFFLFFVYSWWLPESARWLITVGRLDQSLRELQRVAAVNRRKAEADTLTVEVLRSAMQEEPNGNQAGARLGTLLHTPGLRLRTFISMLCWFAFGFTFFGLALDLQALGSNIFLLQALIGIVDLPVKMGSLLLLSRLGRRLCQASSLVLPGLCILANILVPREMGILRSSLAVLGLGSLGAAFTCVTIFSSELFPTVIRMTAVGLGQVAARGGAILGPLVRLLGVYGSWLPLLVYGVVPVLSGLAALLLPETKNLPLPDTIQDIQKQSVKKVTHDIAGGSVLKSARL
Description: as §1, §2
as §3, with “Cells were then washed three times in 25 mM MES pH 5.5/125 mM sodium gluconate, and solubilized in Ultima Gold (Perkin Elmer) prior to liquid scintillation counting.” left out

human URAT1 h-M29L = molecular target: T4, human URAT1 h-M29L (Homo sapiens, UniProt Q96S37, M29L); experiment: URAT1 activity assay, h-M29L; assay type: cell-based; conditions: TM1 point mutant, read-out: Verinurad affinity (IC50)
T4 construct: expressed in transfected cells; host or cells: HEK-293T
T4 sequence (Q96S37 whole entry M29L): as the sequence (Q96S37 whole entry L31V) above, with M29L, V31L counted along it
Description: as §1, §4, §5

human OAT1 = molecular target: T5, human OAT1 (Homo sapiens, UniProt Q4U2R8); experiment: OAT1 activity assay (carboxyfluorescein transport); assay type: cell-based
T5 construct: host or cells: HEK-293T
T5 sequence (Q4U2R8 1-550 isoform Q4U2R8-2): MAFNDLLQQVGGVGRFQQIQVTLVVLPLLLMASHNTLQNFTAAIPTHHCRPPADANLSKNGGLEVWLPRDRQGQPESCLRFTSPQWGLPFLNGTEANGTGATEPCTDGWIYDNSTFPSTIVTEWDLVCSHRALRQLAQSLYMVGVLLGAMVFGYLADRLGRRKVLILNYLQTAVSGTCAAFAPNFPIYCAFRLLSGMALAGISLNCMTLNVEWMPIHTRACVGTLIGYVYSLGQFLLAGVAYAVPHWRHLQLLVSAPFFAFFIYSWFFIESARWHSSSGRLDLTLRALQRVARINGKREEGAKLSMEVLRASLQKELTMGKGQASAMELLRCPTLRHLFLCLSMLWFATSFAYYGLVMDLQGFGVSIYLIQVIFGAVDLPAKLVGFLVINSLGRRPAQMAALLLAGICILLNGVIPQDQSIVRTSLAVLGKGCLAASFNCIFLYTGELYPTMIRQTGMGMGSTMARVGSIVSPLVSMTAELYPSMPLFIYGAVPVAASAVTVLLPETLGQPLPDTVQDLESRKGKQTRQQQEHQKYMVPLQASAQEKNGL
Procedure: DNA (10 μg) was mixed with 30 μl of […] Gold (Boca Scientific) in 2 ml OptiMem (Life Technologies). […] The cells were assayed the following day. OAT1-expressing cells were assayed in a buffer containing 20 mM HEPES (from a 1 M solution at pH 7.3; USB Corporation), 130 mM sodium chloride, 4 mM potassium chloride, 1 mM magnesium sulfate, 1 mM calcium chloride, 1 mM sodium phosphate dibasic and 18 mM glucose. […] Cells were then solubilized in 0.1 N sodium hydroxide prior to fluorimetry measurements. Each treatment was measured in triplicate.

human URAT1 h-M25V = molecular target: T6, human URAT1 h-M25V (Homo sapiens, UniProt Q96S37, M25V); experiment: URAT1 activity assay, h-M25V; assay type: cell-based; conditions: TM1 point mutant, read-out: Verinurad affinity (IC50)
T6 construct: expressed in transfected cells; host or cells: HEK-293T
T6 sequence (Q96S37 whole entry M25V): as the sequence (Q96S37 whole entry L31V) above, with M25V, V31L counted along it
Description: as §1, §4, §5

rat URAT1 r-T26V, sequence (Q3ZAV1 whole entry T26V): as the sequence (Q3ZAV1 whole entry N35S/M481I) above, with T26V, S35N, I481M counted along it

IC50 (rat URAT1 r-T26V): 39 ± 5.5 µM | IC50 (rat URAT1 r-N35S/M481I): 4.43 µM | IC50 (human URAT1 h-L31V): 0.031 ± 0.01 µM | fold increase in affinity relative to rat URAT1 (rat URAT1 r-T32C): 1.4 fold | IC50 (rat URAT1 r-T32C; TM1 point mutant, read-out: Verinurad affinity (IC50)): 29 ± 3.1 µM | fold higher affinity compared to rat URAT1 ([1]; r-N35S/Y365F/M481I): ~300 fold | fold lower affinity compared to human URAT1 ([1]; r-N35S/Y365F/M481I): 6 fold | IC50 ([1]; r-N35S/Y365F/M481I triple point mutant): 0.14 µM | IC50 (human URAT1 h-M29L): 0.011 ± 0.0029 µM | IC50 (human OAT1; human OAT1 in HEK-293T, 20 µM carboxyfluorescein, read-out: IC50, inhibition of transport activity): 4.6 ± 1.4 µM | fold lower affinity compared to URAT1 (human OAT1; human OAT1 vs human URAT1): approximately 200 fold | IC50 (human URAT1 h-M25V): 0.029 ± 0.01 µM
Compound: CC(C)(Sc1ccncc1-c1ccc(C#N)c2ccccc12)C(=O)O [Verinurad, 2-((3-(4-cyanonaphthalen-1-yl)pyrindin-4-yl)thio)-2-methylpropanoic acid]
